According to patent US20220030865A1, “COMPOSITIONS COMPRISING FLORPYRAUXIFEN THAT SAFEN WHITE CLOVER AND METHODS OF USE THEREOF” (CORTEVA AGRISCIENCE LLC, priority 2018, published 2022):

Legend:
[1] = tested on: sickle pod (CASOB, Senna obtusifolia); experiment: Field trial, postemergence herbicidal effect on pasture weeds
Text: (§1) Trials were designed as randomized complete blocks with four replicates. All trials were established with a minimum plot size of 3 meters (m) by 8 m (width×length). All herbicide treatments were applied post-emergence with applications made to the undesirable vegetation. Herbicides were applied with backpack sprayers using carbon dioxide (CO2) as a propellant. The sprayers utilized flat fan spray nozzles calibrated to deliver a uniform spray pattern that provided thorough coverage of the foliage using a 187 L/ha spray volume. All treatments were applied with Activator 90 non-ionic surfactant at 0.25% v/v.
(§2) The weeds were evaluated on the number of days after application (DAA) given in each table below. Injury to the weeds was assessed visually at several intervals after application as percent overall injury, compared to an untreated control plot. The overall injury assessments were based on visual ratings of growth inhibition, leaf deformity, epinasty, and chlorosis.

[2] = tested on: goldenrod (SOOSS, Solidago sp.); experiment: as above; details: 67 DAA
Text: as §1, §2

[3] = tested on: bitter sneezeweed (HENAM, Helenium amarum); experiment: as above
Text: as §1, §2

[4] = tested on: annual yellow sweetclover (MEUIN, Melilotus indicus); experiment: as above; details: 30 DAA
Text: as §1, §2

[5] = tested on: annual marsh-elder (IVAAN, Iva annua); experiment: as above
Text: as §1, §2

[6] = tested on: hairy aster (ASTPI, Symphyotrichum pilosum); experiment: as above
Text: as §1, §2

[7] = tested on: brown knapweed (CENJA, Centaurea jacea); experiment: as above
Text: as §1, §2

[8] = tested on: tall buttercup (RANAC, Ranunculus acris); experiment: as above
Text: as §1, §2

[9] = tested on: mayweed chamomile (ANTCO, Anthemis cotula); experiment: as above; details: 14 DAA
Text: as §1, §2

[10] = tested on: Virginia pepperweed (LEPVI, Lepidium virginicum); experiment: as above; details: 27 DAA
Text: as §1, §2

[11] = tested on: white clover (TRFRE, Trifolium repens); experiment: Field trial United States, safening effect (visual injury) on white clover
Text: Field trials were established in multiple states in the United States to evaluate the safening effect of herbicide treatments to white clover (TRFRE, Trifolium repens) in existing pasture lands. Trials were designed as randomized complete blocks with four replicates. All trials were established with a minimum plot size of 3 meters (m) by 8 m (width×length).
All herbicide treatments were applied post-emergence with applications made to the white clover. Herbicides were applied with backpack sprayers using carbon dioxide (CO2) as a propellant. The sprayers utilized flat fan spray nozzles calibrated to deliver a uniform spray pattern that provided thorough coverage of the foliage using a 187 L/ha spray volume. All treatments were applied with Activator 90 non-ionic surfactant at 0.25% v/v.
The white clover was evaluated on the number of days after application (DAA) given in each table below. Injury to the white clover was assessed visually at several intervals after application as percent overall injury, compared to an untreated control plot. The overall injury assessments were based on visual ratings of growth inhibition, leaf deformity, epinasty, and chlorosis.

COc1c(Cl)ccc(-c2nc(C(=O)OCc3ccccc3)c(Cl)c(N)c2F)c1F [Florpyrauxifen Benzyl, florpyrauxifen benzyl]
Visual Weed Control CASOB Obs ([1]; 30 DAA, 12.5 g ae/ha): 10%
Visual Weed Control CASOB Obs ([1]; 30 DAA, 19 g ae/ha): 10%
Visual Weed Control CASOB Obs ([1]; 45 DAA, 12.5 g ae/ha): 10%
Visual Weed Control CASOB Obs ([1]; 45 DAA, 19 g ae/ha): 10%
Visual Weed Control SOOS Obs ([2]; 9.5 g ae/ha): 75%
Visual Weed Control HENAM Obs ([3]; 30 DAA, 9.5 g ae/ha): 60%
Visual Weed Control HENAM Obs ([3]; 30 DAA, 12.5 g ae/ha): 60%
Visual Weed Control HENAM Obs ([3]; 80 DAA, 12.5 g ae/ha): 40%
Visual Weed Control MEUIN Obs ([4]; 19 g ae/ha): 10%
Visual Weed Control IVAAN Obs ([5]; 41 DAA, 12.5 g ae/ha): 38%
Visual Weed Control IVAAN Obs ([5]; 41 DAA, 19 g ae/ha): 50%
Visual Weed Control IVAAN Obs ([5]; 56 DAA, 12.5 g ae/ha): 42%
Visual Weed Control IVAAN Obs ([5]; 75 DAA, 9.5 g ae/ha): 25%
Visual Weed Control IVAAN Obs ([5]; 75 DAA, 12.5 g ae/ha): 48%
Visual Weed Control IVAAN Obs ([5]; 83 DAA, 9.5 g ae/ha): 30%
Visual Weed Control IVAAN Obs ([5]; 83 DAA, 12.5 g ae/ha): 48%
Visual Weed Control ASTPI Obs ([6]; 88 DAA, 9.5 g ae/ha): 75%
Visual Weed Control ASTPI Obs ([6]; 117 DAA, 9.5 g ae/ha): 20%
Visual Weed Control CENJA Obs ([7]; 67 DAA, 19 g ae/ha): 62%
Visual Weed Control CENJA Obs ([7]; 88 DAA, 19 g ae/ha): 62%
Visual Weed Control CENJA Obs ([7]; 117 DAA, 9.5 g ae/ha): 21%
Visual Weed Control CENJA Obs ([7]; 117 DAA, 19 g ae/ha): 31%
Visual Weed Control RANAC Obs ([8]; 10 DAA, 9.44 g ae/ha): 0%
Visual Weed Control RANAC Obs ([8]; 40 DAA, 9.44 g ae/ha): 0%
Visual Weed Control ANTCO Obs ([9]; 12.5 g ae/ha): 10%
Visual Weed Control LEPVI Obs ([10]; 9.5 g ae/ha): 62%
Visual Weed Control LEPVI Obs ([10]; 12.5 g ae/ha): 70%
Visual Weed Control LEPVI Obs ([10]; 19 g ae/ha): 65%

O=C(O)COc1ccc(Cl)cc1Cl [2,4-D Choline, 2,4-D choline]
Visual Weed Control CASOB Obs ([1]; 30 DAA, 840 g ae/ha): 10%
Visual Weed Control CASOB Obs ([1]; 45 DAA, 840 g ae/ha): 10%
Visual Weed Control SOOS Obs ([2]; 840 g ae/ha): 15%
Visual Weed Control HENAM Obs ([3]; 30 DAA, 840 g ae/ha): 74%
Visual Weed Control HENAM Obs ([3]; 80 DAA, 840 g ae/ha): 90%
Visual Injury TRFRE Obs ([11]; 0 DAA, 754 g ae/ha): 30%
Visual Injury TRFRE Obs ([11]; 0 DAA, 840 g ae/ha): 6.5%
Visual Injury TRFRE Obs ([11]; 7 DAA, 754 g ae/ha): 4.8%
Visual Injury TRFRE Obs ([11]; 7 DAA, 840 g ae/ha): 10%
Visual Injury TRFRE Obs ([11]; 14 DAA, 754 g ae/ha): 86.2%
Visual Injury TRFRE Obs ([11]; 14 DAA, 840 g ae/ha): 15%
Visual Injury TRFRE Obs ([11]; 21 DAA, 840 g ae/ha): 11.2%
Visual Injury TRFRE Obs ([11]; 28 DAA, 840 g ae/ha): 10%
Visual Weed Control MEUIN Obs ([4]; 840 g ae/ha): 20%
Visual Weed Control IVAAN Obs ([5]; 41 DAA, 840 g ae/ha): 38%
Visual Weed Control IVAAN Obs ([5]; 56 DAA, 840 g ae/ha): 38%
Visual Weed Control IVAAN Obs ([5]; 75 DAA, 840 g ae/ha): 30%
Visual Weed Control IVAAN Obs ([5]; 83 DAA, 840 g ae/ha): 35%
Visual Weed Control ASTPI Obs ([6]; 88 DAA, 840 g ae/ha): 10%
Visual Weed Control ASTPI Obs ([6]; 117 DAA, 840 g ae/ha): 5%
Visual Weed Control CENJA Obs ([7]; 67 DAA, 840 g ae/ha): 0%
Visual Weed Control CENJA Obs ([7]; 88 DAA, 840 g ae/ha): 0%
Visual Weed Control CENJA Obs ([7]; 117 DAA, 840 g ae/ha): 0%
Visual Weed Control RANAC Obs ([8]; 10 DAA, 750 g ae/ha): 8%
Visual Weed Control RANAC Obs ([8]; 40 DAA, 750 g ae/ha): 28%
Visual Weed Control ANTCO Obs ([9]; 840 g ae/ha): 30%
Visual Weed Control LEPVI Obs ([10]; 840 g ae/ha): 74%
